Source: article PMC9106665 (Communications Biology, 2022)
Where a chain is given by its changes, count along the chain named. Values after ≈ are worked out from the molar mass of the structure shown. Values joined by “and” are separate entries in the source; they are usually repeats but may differ in a detail not shown here. Identical values can stand only once. Like-named read-outs stand apart in the source and are kept apart here.

What was measured:
[1] = tested on: E. coli BL21(DE3) strain overexpressing DfrA1; test: Antibacterial activity (MIC); assay type: cell-based; conditions: Escherichia coli
[2] = target: T1, EcDHFR L28Q (Escherichia coli, UniProt P0ABQ4, L28Q); test: Enzyme inhibition assay (NADPH oxidation, 340 nm); assay type: biochemical
T1 construct: using E. coli DHFR template previously synthesized by GeneScript; made in house; host or cells: E. coli BL21(DE3)
T1 sequence (P0ABQ4 1-159 L28Q): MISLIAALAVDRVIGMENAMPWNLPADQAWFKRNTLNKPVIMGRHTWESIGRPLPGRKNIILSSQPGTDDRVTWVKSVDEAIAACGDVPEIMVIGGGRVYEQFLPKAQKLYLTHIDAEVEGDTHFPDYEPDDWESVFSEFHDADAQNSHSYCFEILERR
Description: (§1) The assay was performed at room temperature using the Shimadzu UV/visible spectrophotometer. A standard reaction buffer contained 20 mM TES, pH 7.0, 50 mM KCl, 10 mM β-mercapthoethanol, 0.5 mM EDTA, and 1 mg/ml BSA. […] All measurements were performed in triplicate, from at least two independent experiments.

[3] = target: T2, EcDHFR D27E/L28Q (Escherichia coli, UniProt P0ABQ4, D27E/L28Q); test: Enzyme inhibition assay (NADPH oxidation, 340 nm); assay type: biochemical
T2 construct: using E. coli DHFR template previously synthesized by GeneScript; made in house; host or cells: E. coli BL21(DE3)
T2 sequence (P0ABQ4 1-159 D27E/L28Q): T1 sequence (P0ABQ4 1-159 L28Q) with D27E
Description: as §1

[4] = target: T3, EcDHFR D27E (Escherichia coli, UniProt P0ABQ4, D27E); test: Enzyme inhibition assay (NADPH oxidation, 340 nm); assay type: biochemical
T3 construct: using E. coli DHFR template previously synthesized by GeneScript; made in house; host or cells: E. coli BL21(DE3)
T3 sequence (P0ABQ4 1-159 D27E): T1 sequence (P0ABQ4 1-159 L28Q) with D27E, Q28L
Description: as §1

[5] = target: T4, DfrA1 (Escherichia coli, UniProt P00382); assay type: binding, E. coli
T4 construct: dfrA1 gene (UniProtKB:A4GRC7) were synthesized and cloned in pET-41a (+) vector; made in house; host or cells: E. coli BL21(DE3)
T4 sequence (P00382 1-157): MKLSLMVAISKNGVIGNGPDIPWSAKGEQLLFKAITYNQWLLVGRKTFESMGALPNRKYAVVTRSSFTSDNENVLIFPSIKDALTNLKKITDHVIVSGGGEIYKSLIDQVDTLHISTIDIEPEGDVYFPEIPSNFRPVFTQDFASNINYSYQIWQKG
Description: (§2) In all, 200 µg of purified enzyme was preincubated for 18 h without and with a 10× molar excess of the ligand(s) (NADPH, TMP or PLA) in 20 mM Hepes 7.5, 100 mM KCl, 5% glycerol, ±2.0% DMSO and 2 mM DTT buffer. […] Changes in intrinsic fluorescence intensity (measured ratio of absorbance at 350 nm over 330 nm) from tryptophan residues were used to calculate derivatives using the evaluation features provided by the Tycho instrument.

[6] = tested on: DfrA1 and DfrA5; assay type: biochemical, E. coli; conditions: range over DfrA1 and DfrA5
Description: as §1

[7] = tested on: E. coli BL21(DE3) strain overexpressing DfrA5; test: Antibacterial activity (MIC); assay type: cell-based; conditions: Escherichia coli
[8] = tested on: E. coli BL21(DE3) strain overexpressing EcDHFR wt; test: Antibacterial activity (MIC); assay type: cell-based; conditions: Escherichia coli
[9] = target: T5, E. coli DHFR (EcDHFR) (Escherichia coli, UniProt P0ABQ4); test: biochemical
T5 construct: E. coli DHFR gene (UniProtKB:P0ABQ4) and dfrA1 gene (UniProtKB:A4GRC7) were synthesized and cloned in pET-41a (+) vector; made in house; host or cells: E. coli BL21(DE3)
Description: as §1

[10] = target: T6, DfrA5 (Escherichia coli, UniProt P11731); test: biochemical; parameters: species or system E. coli
Description: as §1

[11] = target: T6, DfrA5; assay type: binding, E. coli; parameters: E. coli dfrA5 gene (UniProtKB:A0A4Y6L037) was synthesized and cloned in pET-24a (+) vector with the same restriction sites; 6xHis tag (C); made in house; host or cells: E. coli BL21(DE3)
Description: In all, 200 µg of purified enzyme was preincubated for 18 h without and with a 10× molar excess of the ligand(s) (NADPH, TMP or PLA) in 20 mM Hepes 7.5, 100 mM KCl, 5% glycerol, ±2.0% DMSO and 2 mM DTT buffer. […] Changes in intrinsic fluorescence intensity (measured ratio of absorbance at 350 nm over 330 nm) from tryptophan residues were used to calculate derivatives using the evaluation features provided by the Tycho instrument. The inflection temperature (Ti) as a marker of protein structural integrity was determined by the first derivative of the signal (ratio of 350 nm/330 nm).

[12] = target: T7, EcDHFR (Escherichia coli, UniProt P0ABQ4); assay type: binding
T7 construct: E. coli DHFR gene (UniProtKB:P0ABQ4) and dfrA1 gene (UniProtKB:A4GRC7) were synthesized and cloned in pET-41a (+) vector; made in house; host or cells: E. coli BL21(DE3)
Description: as §2

[13] = tested on: E. coli JW0451 acrB mutant strain; test: microbe, parasite or virus in culture; assay type: cell-based; conditions: for MIC: w/o SMX, 80% inhibition of growth, 18 to 20 hours, 37°C
Description: (§3) Preparation, handling of cultures and the antibiotic susceptibility testing was performed according to CLSI guidelines. […] The compounds at the highest concentrations alone and paired with Sulfamethoxazole (1:19 w/w ratio) were then added to the first well before being serially diluted (2-fold) throughout the plate, leaving the last well with broth only (negative growth control). Next, 50 μl of the inoculum was added to each well.

[14] = tested on: E. coli BW25113; test: microbe, parasite or virus in culture; assay type: cell-based; conditions: for MIC: Escherichia coli, 80% inhibition of growth
Description: as §3

[15] = tested on: DfrA1; assay type: biochemical, E. coli
Excerpt: (§4) using a nonlinear regression method in GraphPad Prism 9.2.0 software. To determine the turnover number (kcat) using the same model, the enzyme concentration (based on the protein concentration determined by Bradford assay) was constrained to a constant value and analyzed by the following equation (Eq. 3):3 Y=Et×kcat×X/(Km+X)

[16] = tested on: DfrA5; assay type: biochemical, E. coli
Excerpt: as §4

[17] = target: T1, EcDHFR L28Q; test: Steady-state kinetic measurements; assay type: biochemical; conditions: varied substrate 1 to 200 µM, 25 °C
Excerpt: as §4

[18] = target: T2, EcDHFR D27E/L28Q; test: Steady-state kinetic measurements; assay type: biochemical; conditions: varied substrate 1 to 200 µM, 25 °C
Excerpt: as §4

[19] = target: T3, EcDHFR D27E; test: Steady-state kinetic measurements; assay type: biochemical; conditions: varied substrate 1 to 200 µM, 25 °C
Excerpt: as §4

[20] = target: T6, DfrA5; test: biochemical; assay type: binding, E. coli
[21] = target: T7, EcDHFR; test: biochemical; assay type: binding
[22] = target: T4, DfrA1; test: biochemical; assay type: binding, E. coli
[23] = binary complex, 10× molar excess of ligand

Compound: CCc1nc(N)nc(N)c1C#CC(C)c1cc2c(c(-c3ccc(CN)cc3)c1)OCO2 (stereo not drawn) [UCP1223]
- MIC ([1]; w/ SMX (1:19)): 20 µg/mL (≈ 48.1 µM)
- MIC ([1]; w/o SMX): > 20 µg/mL
- Ki [2]: 7.37 ± 0.72 nM
- Ki [3]: 187 ± 5.5 nM
- fold loss in affinities relative to EcDHFR ([3]; combinatorial mutant D27E/L28Q): 118 fold
- Ki [4]: 12.8 ± 0.56 nM
- fold increase in Ki over EcDHFR ([4]; D27E substitution): 8 fold
- Ti [5, 23]: 58.5 ± 0.1 °C
- Δ (Ti shift vs apo) [5, 23]: 8.7 °C
- Ti ([5]; ternary complex, +NADPH): 71.2 ± 3.1 °C
- fold loss of activity against DfrA1 and DfrA5 compared to EcDHFR [6]: 10–14 fold
- MIC ([7]; w/ SMX (1:19)): 10 µg/mL (≈ 24.1 µM)
- MIC ([7]; w/o SMX): > 20 µg/mL
- MIC ([8]; w/ SMX (1:19)): 1.25 µg/mL (≈ 3.01 µM)
- MIC ([8]; w/o SMX): 20 µg/mL (≈ 48.1 µM)
- Ki [9]: 1.58 ± 0.26 nM
- Ki [10]: 16.8 ± 0.29 nM
- Ti [11, 23]: 67.3 ± 1.0 °C
- Δ (Ti shift vs apo) [11, 23]: 1.0 °C
- Ti ([11]; ternary complex, +NADPH): 88.5 ± 0.2 °C
- Ti 1 [12, 23]: 68.5 ± 1.4 °C
- Ti 2 [12, 23]: 80.8 ± 0.2 °C
- Δ1 (Ti shift vs apo) [12, 23]: 18.9 °C
- Δ2 (Ti shift vs apo) [12, 23]: 20.6 °C
- Ti 1 ([12]; ternary complex, +NADPH): 78.9 ± 2.4 °C
- Ti 2 ([12]; ternary complex, +NADPH): 88.3 ± 0.5 °C
- Δ1 (Ti shift vs apo) ([12]; ternary complex, +NADPH): 29.3 °C
- Fold difference in MIC ([13]; BW25113 w/o SMX vs JW0451 w/o SMX): 32
- MIC ([13]; Escherichia coli): 0.625 µg/mL (≈ 1.5 µM)
- MIC [13]: 1.25 µg/mL (≈ 3.01 µM)
- Fold difference in MIC ([14]; BW25113 w/o SMX vs w/ SMX): 32
- MIC ([14]; BW25113, w/ SMX (1:19)): 0.625 µg/mL (≈ 1.5 µM)
- MIC ([14]; BW25113, w/o SMX, 18 to 20 hours, 37°C): 20 µg/mL (≈ 48.1 µM)

Compound: NC(=O)C1=CN([C@@H]2O[C@H](COP(=O)(O)OP(=O)(O)OC[C@H]3O[C@@H](n4cnc5c(N)ncnc54)[C@H](OP(=O)(O)O)[C@@H]3O)[C@@H](O)[C@H]2O)C=CC1 [NADPH]
- fold increase in KM compared to EcDHFR [15]: 2 fold
- fold increase in KM compared to EcDHFR [16]: 3 fold
- Km [17]: 7.6 ± 1.3 µM
- kcat [17]: 4.4 ± 0.2 s⁻¹
- Km [18]: 11.1 ± 1.6 µM
- kcat [18]: 3.8 ± 0.2 s⁻¹
- Km [19]: 5.8 ± 0.9 µM
- kcat [19]: 5.9 ± 0.3 s⁻¹
- Kd ([20]; DfrA5:TMP, titrant NADPH): 1540 ± 380 nM
- Kd ([20]; DfrA5:UCP1228 (100 µM UCP1228), titrant NADPH): 459 ± 157 nM
- Kd ([20]; DfrA5 apo): 7470 ± 1670 nM
- Kd ([20]; DfrA5 apo form (Fig. S8)): 6840 nM
- Kd ([20]; DfrA5 apo, series NADPH KD ± UCP1228): 6840 ± 1610 nM
- Kd ([20]; DfrA5 preincubated with 100 µM UCP1228, titrant NADPH (Fig. S8)): 450 nM
- Fold change in KD ([20]; NADPH KD ± Trimethoprim): 5 and 4.9 ± 1.6
- Fold change in KD ([20]; NADPH KD ± UCP1228): 15 and 14.9 ± 6.2
- Ti [5, 23]: 56.5 ± 0.8 °C
- Δ (Ti shift vs apo) [5, 23]: 6.7 °C
- Kd ([21]; EcDHFR apo): 771 ± 145 nM
- Kd ([21]; EcDHFR apo form, Fig. S5a titration): 661 nM
- Kd ([21]; EcDHFR:TMP (preincubated with 1 µM TMP), titrant NADPH): 8 nM and 8.1 nM
- Fold change in KD ([21]; NADPH KD ± Trimethoprim): 95.2 ± 50.3
- Ti [11, 23]: 69.2 ± 0.5 °C
- Δ (Ti shift vs apo) [11, 23]: 2.9 °C
- Kd ([22]; KD, DfrA1:TMP, titrant NADPH): 430 ± 95 nM
- Kd ([22]; KD, DfrA1:UCP1228 (100 µM UCP1228), titrant NADPH): 289 ± 51 nM
- Kd ([22]; KD, DfrA1 apo): 1650 ± 230 nM
- Kd ([22]; KD, DfrA1 apo, series NADPH KD ± UCP1228): 1040 ± 106 nM
- Kd ([22]; Kd, DfrA1 apo form (Fig. S8)): 1040 ± 110 nM
- Kd ([22]; Kd, DfrA1 preincubated with 100 µM UCP1228, titrant NADPH (Fig. S8)): 290 nM
- Fold change in KD ([22]; NADPH KD ± Trimethoprim): 4 and 3.8 ± 1.0
- Fold change in KD ([22]; NADPH KD ± UCP1228): 4 and 3.6 ± 0.7
- Ti 1 [12, 23]: 53.8 ± 0.4 °C
- Ti 2 [12, 23]: 63.1 ± 1.3 °C
- Δ1 (Ti shift vs apo) [12, 23]: 4.2 °C
- Δ2 (Ti shift vs apo) [12, 23]: 2.9 °C
